Counter-ions that a name gives are not always drawn. Like-named read-outs stand apart in the source and are kept apart here.
What was measured:
[1] = Metabolic stability in human liver microsomes, unbound intrinsic clearance (Cl int/fu mic); format: in vitro ADME; conditions: 0.5 μM compound, NADPH; for CLint scaled at 0.5 μM: pH 7.4, human liver microsomes 0.25 mg/mL, read-out: Cl int, mic unb. (h) [l/h/kg] (unbound intrinsic clearance, human); for Cl int, mic unb. (h) [l/h/kg] (unbound intrinsic clearance, human): human liver microsomes 0.25 mg/mL
In short: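 Compound (0.5 µM) was incubated with human liver microsomes (0.25 mg/mL) in pH 7.4 phosphate buffer at 37 °C with 1.0 mM NADPH, sampling from 0–30 min. Depletion was followed by LC-MS/MS, and CLint was derived from first-order t1/2 per mg protein. Microsomal unbound fraction came from 4 h equilibrium dialysis at 37 °C, giving CLint/fu mic.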

5-HT2C receptor = target: T1, 5-HT2C receptor (Homo sapiens, UniProt P28335); assay: Human 5-HT2C functional assay (beta-arrestin2 recruitment, U2OS_HTR2C_β-Arrestin cells); format: cell-based; conditions: for EC50: beta-arrestin2 recruitment, U2OS_HTR2C_β-Arrestin cells, 1.5 h incubation, read-out: EC50 5-HT2C (potency in functional assay)
T1 construct: host or cells: U2OS
T1 sequence (P28335 33-458): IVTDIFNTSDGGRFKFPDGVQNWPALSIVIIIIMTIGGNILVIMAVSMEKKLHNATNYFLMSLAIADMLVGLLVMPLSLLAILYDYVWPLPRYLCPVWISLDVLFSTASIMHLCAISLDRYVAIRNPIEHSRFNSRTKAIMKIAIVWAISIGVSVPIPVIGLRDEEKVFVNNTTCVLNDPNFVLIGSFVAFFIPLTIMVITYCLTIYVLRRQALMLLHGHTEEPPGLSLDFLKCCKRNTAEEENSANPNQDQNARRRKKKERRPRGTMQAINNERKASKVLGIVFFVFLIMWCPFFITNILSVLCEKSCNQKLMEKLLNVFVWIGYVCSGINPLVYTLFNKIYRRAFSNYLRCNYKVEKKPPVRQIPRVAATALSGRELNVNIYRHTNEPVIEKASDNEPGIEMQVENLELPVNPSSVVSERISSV
T1 sequence (P32121 whole entry partner): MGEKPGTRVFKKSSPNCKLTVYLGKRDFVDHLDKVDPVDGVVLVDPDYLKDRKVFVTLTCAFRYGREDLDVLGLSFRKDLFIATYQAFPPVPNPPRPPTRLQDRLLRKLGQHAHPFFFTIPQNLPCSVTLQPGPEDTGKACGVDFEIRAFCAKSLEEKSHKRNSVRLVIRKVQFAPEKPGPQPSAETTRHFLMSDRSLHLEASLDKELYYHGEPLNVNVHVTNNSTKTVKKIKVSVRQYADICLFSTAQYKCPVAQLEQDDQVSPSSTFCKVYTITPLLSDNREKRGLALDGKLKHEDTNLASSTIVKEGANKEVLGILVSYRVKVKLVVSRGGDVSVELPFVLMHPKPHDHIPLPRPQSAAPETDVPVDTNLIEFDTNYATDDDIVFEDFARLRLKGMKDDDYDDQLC
In short: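 U2OS cells expressing HTR2C with β-galactosidase complementation, switched to 1% serum medium 24 h post-plating, were treated next day with compound for 1.5 h; chemiluminescence read. Response expressed as % of 10 µM 5-HT or maximal 5-HT effect; EC50 from 4-parameter variable-slope fit.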

[2] = relative efficacy vs response to 10 μM 5-HT or maximal 5-HT effect (100%)

SMILES	CLint scaled at 0.5 μM ([1]; human, liver microsomes) [L/h/kg]	EC50 (5-HT2C receptor) [µM]	Emax (5-HT2C receptor; [2]) [%]	CLint scaled at 0.5 μM [1] [L/h/kg]	Cl int, mic unb. (h) [l/h/kg] (unbound intrinsic clearance, human) [1]	% efficacy (5-HT2C receptor; [2])
COc1nc(CC2CCOCC2)c(F)cc1CNC(=O)[C@@H]1CCCN1 [Example 189, (2S)—N-[[5-Fluoro-2-methoxy-6-(tetrahydropyran-4-ylmethyl)-3-pyridyl]methyl]-pyrrolidine-2-carboxamide; 2,2,2-trifluoroacetic Acid]	< 5	0.2 to 1	50 to 70	–	–	–
COc1nc(OC[C@H]2CCC(F)(F)C2)c(F)cc1CNC(=O)[C@@H]1CCCN1C [Example 17, (2S)—N-[[6-[[(1S)-3,3-Difluorocyclopentyl]methoxy]-5-fluoro-2-methoxy-3-pyridyl]methyl]-1-methyl-pyrrolidine-2-carboxamide; Fumaric Acid]	5 to 50	0.02 to 0.2	50 to 70	–	–	–
COc1nc(O[C@H]2CCC[C@H](C(F)(F)F)C2)c(F)cc1CNC(=O)[C@@H]1CCCN1 (relative stereo) [Example 89, (2S)—N-[[5-Fluoro-2-methoxy-6-[(1S,3S)-3-(trifluoromethyl)cyclohexoxy]-3-pyridyl]methyl]pyrrolidine-2-carboxamide Hydrochloride]	5 to 50	< 0.02	> 70	–	–	–
COc1nc(O[C@H]2CC[C@H](C(F)(F)F)CC2)c(F)cc1CNC(=O)[C@@H]1CCCN1 [Example 11, (2S)—N-[[5-Fluoro-2-methoxy-6-[trans-4-(trifluoromethyl)cyclohexoxy]-3-pyridyl]methyl]pyrrolidine-2-carboxamide; Fumaric Acid]	5 to 50	< 0.02	> 70	–	–	–
COc1nc(OC(C)C(F)(F)C(F)F)c(F)cc1CNC(=O)[C@@H]1CCCN1 (stereo partly drawn) [Example 53, (2S)—N-[[5-Fluoro-2-methoxy-6-(2,2,3,3-tetrafluoro-1-methyl-propoxy)-3-pyridyl]-methyl]pyrrolidine-2-carboxamide; Succinic Acid]	< 5	< 0.02	> 70	–	–	–
COc1nc(OC2CCC(F)(F)CC2)c(F)cc1CNC(=O)[C@@H]1CCCN1C [Example 10, (2S)—N-[[6-(4,4-Difluorocyclohexoxy)-5-fluoro-2-methoxy-3-pyridyl]methyl]-1-methyl-pyrrolidine-2-carboxamide; Fumaric Acid]	5 to 50	< 0.02	> 70	–	–	–
COc1nc(NCc2ccccc2)c(F)cc1CNC(=O)[C@@H]1CCCN1 [Example 170, (2S)—N-[[6-(Benzylamino)-5-fluoro-2-methoxy-3-pyridyl]methyl]pyrrolidine-2-carboxamide; 2,2,2-trifluoroacetic Acid]	< 5	0.02 to 0.2	> 70	–	–	–
COc1nc(OC2CCC(C(C)(F)F)CC2)c(F)cc1CNC(=O)[C@@H]1CCCN1 (single isomer, unassigned; isomer 1) [Example 73]	5 to 50	0.2 to 1	> 70	–	–	–
COc1nc(N2CCC(F)(F)CC2)c(F)cc1CNC(=O)[C@@H]1CCCN1 [Example 134, (2S)—N-[[6-(4,4-Difluoro-1-piperidyl)-5-fluoro-2-methoxy-3-pyridyl]methyl]-pyrrolidine-2-carboxamide; 2,2,2-trifluoroacetic Acid]	< 5	< 0.02	> 70	–	–	–
COc1nc(C2CCC(OC)CC2)c(F)cc1CNC(=O)[C@@H]1CCCN1 (stereo partly drawn) [Example 172, (2S)—N-[[5-Fluoro-2-methoxy-6-(4-methoxycyclohexyl)-3-pyridyl]methyl]-pyrrolidine-2-carboxamide]	< 5	0.02 to 0.2	> 70	–	–	–
COc1nc(N2CC(F)(F)C(F)(F)C(F)(F)C2)c(F)cc1CNC(=O)[C@@H]1CCCN1 [Example 182, (2S)—N-[[5-Fluoro-6-(3,3,4,4,5,5-hexafluoro-1-piperidyl)-2-methoxy-3-pyridyl]-methyl]pyrrolidine-2-carboxamide Hydrochloride]	–	< 0.02	> 70	5 to 50	–	–
COc1nc(N(C)C2CCC(F)(F)CC2)c(F)cc1CNC(=O)[C@@H]1CCCN1 [Example 154, (2S)—N-[[6-[N-(4,4-Difluorocyclohexyl)-N-methyl-amino]-5-fluoro-2-methoxy-3-pyridyl]methyl]pyrrolidine-2-carboxamide; 2,2,2-trifluoroacetic Acid]	5 to 50	0.02 to 0.2	> 70	–	–	–
COc1nc(O[C@H]2CC[C@@H](C(F)(F)F)CC2)c(F)cc1CN(C)C(=O)[C@@H]1CCCN1 [Example 119, (2S)—N-[[5-Fluoro-2-methoxy-6-[cis-4-(trifluoromethyl)cyclohexoxy]-3-pyridyl]-methyl]-N-methyl-pyrrolidine-2-carboxamide hydrochloride]	5 to 50	0.02 to 0.2	> 70	–	–	–
CCCN(Cc1ccccc1)c1nc(OC)c(CNC(=O)[C@@H]2CCCN2)cc1F [Example 171, (2S)—N-[[6-[Benzyl(propyl)amino]-5-fluoro-2-methoxy-3-pyridyl]methyl]-pyrrolidine-2-carboxamide Hydrochloride]	5 to 50	0.2 to 1	> 70	–	–	–
COc1nc(NCC2(C(F)(F)F)CC2)c(F)cc1CNC(=O)[C@@H]1CCCN1 [Example 152, (2S)—N-[[5-Fluoro-2-methoxy-6-[[1-(trifluoromethyl)cyclopropyl]methylamino]-3-pyridyl]methyl]pyrrolidine-2-carboxamide; 2,2,2-trifluoroacetic Acid]	< 5	< 0.02	> 70	–	–	–
COc1nc(OCCCC(F)(F)F)c(F)cc1CNC(=O)[C@@H]1CCCN1 [Example 40, (2S)—N-[[5-Fluoro-2-methoxy-6-(4,4,4-trifluorobutoxy)-3-pyridyl]methyl]-pyrrolidine-2-carboxamide; Succinic Acid]	< 5	< 0.02	> 70	–	–	–
COc1nc(OCC(C)(C(F)(F)F)C(F)(F)F)c(F)cc1CNC(=O)[C@@H]1CCCN1 [Example 109, (2S)—N-[[5-Fluoro-2-methoxy-6-[3,3,3-trifluoro-2-methyl-2-(trifluoromethyl)propoxy]-3-pyridyl]methyl]pyrrolidine-2-carboxamide Hydrochloride]	50 to 500	< 0.02	> 70	–	–	–
COc1nc(OC2CC(F)(F)C2)c(F)cc1CNC(=O)[C@@H]1CCCN1C [Example 71, (2S)—N-[[6-(3,3-Difluorocyclobutoxy)-5-fluoro-2-methoxy-3-pyridyl]methyl]-1-methyl-pyrrolidine-2-carboxamide Hydrochloride]	< 5	< 0.02	> 70	–	–	–
COc1nc(N[C@H]2CC[C@@H](C(F)(F)F)CC2)c(F)cc1CNC(=O)[C@@H]1CCCN1.Cl [Example 142, (2S)—N-[[5-Fluoro-2-methoxy-6-[[cis-4-(trifluoromethyl)cyclohexyl]amino]-3-pyridyl]methyl]pyrrolidine-2-carboxamide Hydrochloride]	–	< 0.02	–	–	++ (from 5 to <50 l/h/kg)	+++ (>70%)
COc1nc(NC2CCC2)c(F)cc1CNC(=O)[C@@H]1CCCN1 [Example 146, (2S)—N-[[6-(Cyclobutylamino)-5-fluoro-2-methoxy-3-pyridyl]methyl]pyrrolidine-2-carboxamide; 2,2,2-trifluoroacetic Acid]	< 5	0.02 to 0.2	> 70	–	–	–
COc1nc(N(C)CCc2ccccc2)c(F)cc1CNC(=O)[C@@H]1CCCN1 [Example 137, (2S)—N-[[5-Fluoro-2-methoxy-6-[methyl(phenethyl)amino]-3-pyridyl]methyl]-pyrrolidine-2-carboxamide Hydrochloride]	50 to 500	0.2 to 1	> 70	–	–	–
COc1nc(OC2CCC(C(F)(F)F)CC2)c(F)cc1CNC(=O)[C@@H]1C[C@@H](F)CN1 (stereo partly drawn) [Example 35, (2S,4R)-4-Fluoro-N-[[5-fluoro-2-methoxy-6-[4-(trifluoromethyl)cyclohexoxy]-3-pyridyl]methyl]pyrrolidine-2-carboxamide; Fumaric Acid]	< 5	< 0.02	> 70	–	–	–
COc1nc(NCc2ccc(F)cc2)c(F)cc1CNC(=O)[C@@H]1CCCN1 [Example 177, (2S)—N-[[5-Fluoro-6-[(4-fluorophenyl)methylamino]-2-methoxy-3-pyridyl]methyl]-pyrrolidine-2-carboxamide; 2,2,2-trifluoroacetic Acid]	< 5	0.02 to 0.2	> 70	–	–	–
COc1nc(N[C@H]2CC[C@H](C(F)(F)F)CC2)c(F)cc1CNC(=O)[C@@H]1CCCN1 [Example 143, (2S)—N-[[5-Fluoro-2-methoxy-6-[[trans-4-(trifluoromethyl)cyclohexyl]amino]-3-pyridyl]methyl]pyrrolidine-2-carboxamide]	–	< 0.02	> 70	–	+ (from 50 to 500 l/h/kg)	–
COc1nc(N2CC(Oc3ccccc3)C2)c(F)cc1CNC(=O)[C@@H]1CCCN1 [Example 175, (2S)—N-[[5-Fluoro-2-methoxy-6-(3-phenoxyazetidin-1-yl)-3-pyridyl]methyl]-pyrrolidine-2-carboxamide; 2,2,2-trifluoroacetic Acid]	5 to 50	0.02 to 0.2	50 to 70	–	–	–
